Experimental data: PubChem BioAssay (NCI)
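1) Cells in 96-well plates. 2) Compound, 48 h, 5 concentrations. 3) Linear interpolation between surrounding doses. 4) Unreached endpoint = highest concentration. TGI: concentration producing complete growth inhibition.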

Test system: SK-MEL-28 melanoma
Assay: DTP human tumour cell line panel, 48 h

CCOC(=O)C1=C(Nc2cccc(OC)c2)OCC1=O was tested, and the TGI was over 100 µM.

Test system: HOP-62 NSCLC
Assay: DTP human tumour cell line panel, 48 h

CN1CCOC1(C)CO (stereo not given) and CC12CCC(C(=O)OC1=O)C2(C)C (stereo not given) cannot be ordered by TGI: over 100 µM for the first, over 100 µM for the second.

COc1ccc2c3c1O[C@H]1C(O)CCC4(O)[C@@H](C2)NCC[C@]314 (stereo not given in full) and COc1ccc2c(c1C)C(=O)C(O)(CC=C(C)C)O2 (stereo not given) cannot be ordered by TGI: over 100 µM for the first, over 100 µM for the second.

N#CSc1nc[nH]c1C(N)=O and N#Cc1sc2nc(/C=C3/C=CC=CC3=O)c(O)n2c1N cannot be ordered by TGI: over 100 µM for the first, over 100 µM for the second.

CN(C)C(=O)NCCN1CCCCCc2ccccc21 and CCOC(=O)c1csc(NC(=O)C(C)N2CCCCC2)n1 (stereo not given) cannot be ordered by TGI: over 100 µM for the first, over 100 µM for the second.

CCOC(=O)c1nc2c(Cl)c3ncccc3cc2[nH]c1=O and CCOC(=O)C1=C(Nc2cccc(OC)c2)OCC1=O cannot be ordered by TGI: over 100 µM for the first, over 100 µM for the second.

Compared with CC1(C#N)CC(C)(C)C(/C=C2/CC(C)(C)C(/C=C3/OC(=N)CC3(C)C)=N2)=N1 (stereo not given), CC1(C)OCC2OC3(c4nc(C#N)c(N)o4)OC(C)(C)OC3C2O1 (stereo not given) is higher in TGI: 56.6 µM for the first, over 100 µM for the second.

Compared with Cc1cccc(/C=N/NC(=S)NCCc2ccccn2)n1, COc1ccc(CCNC2=CC(=O)c3ncccc3C2=O)cc1OC is lower in TGI: over 75.1 µM for the first, 7.9 µM for the second.

Going from C=CCNC1=C2C[C@@H](C)C[C@@H](OC)[C@@H](OC(=O)CCCN)[C@H](C)/C=C(\C)[C@@H](OC(N)=O)[C@H](OC)/C=C\C=C(/C)C(=O)NC(=CC1=O)C2=O to COc1ccc2c(c1)CCc1c-2[nH]c2ccc(OC)cc12, the TGI rises from 18.9 µM to over 100 µM.

Going from CC(=O)Oc1ccccc1-c1cc2ccccc2oc1=O to N#Cc1c(-c2ccccc2)[nH]c2ccccc2c1=O, the TGI falls from over 100 µM to 84.9 µM.

Going from CCOC(=O)C(N)CSC(=O)NC (stereo not given) to CC(=O)c1csc2c1C(=O)c1scc(C(C)=O)c1C2=O, the TGI falls from 567 µM to 3.43 µM (170-fold).

O=C1c2cc3c(cc2CC12Cc1cc4c(cc1C2=O)CCC4)CCCC3 (stereo not given) and c1cc(-c2ncc(-c3ccc4c(c3)CCCO4)o2)ccn1 cannot be ordered by TGI: over 100 µM for the first, over 100 µM for the second.

First: C[C@H]1[C@H](C)CC[C@]2(C)CC[C@]3(C)C(=C[C@@H](O)[C@@H]4[C@@]5(C)[C@H](O)[C@@H](O)[C@H](O)C(C)(C)[C@@H]5CC[C@]43C)[C@H]12
Second: O=C(NCCCNC(=O)c1ccc2c(O)c(O)ccc2c1)c1ccc2c(O)c(O)ccc2c1
The TGI of the first is higher: over 100 µM for the first, 48.1 µM for the second.

Compared with COc1ccnc2c1C(=O)c1nc3ccccc3c3ccnc-2c13, O=C1NC(=O)C(c2c[nH]c3cc(Br)ccc23)=C1c1cn(C(c2ccccc2)(c2ccccc2)c2ccccc2)cn1 is 16-fold higher in TGI: 5.34 µM for the first, 83.9 µM for the second.

First: O=C(O)c1ccc(NNc2cc(=O)[nH]c(=O)[nH]2)cc1
Second: CC1=C(Br)C(Br)=C(C)S1=O
The TGI of the first is higher: over 100 µM for the first, 42.1 µM for the second.

Test system: SN12C renal
Assay: DTP human tumour cell line panel, 48 h

COc1ccc2c3c1O[C@H]1C(O)CCC4(O)[C@@H](C2)NCC[C@]314 (stereo not given in full) and COc1ccc2c(c1C)C(=O)C(O)(CC=C(C)C)O2 (stereo not given) cannot be ordered by TGI: over 100 µM for the first, over 100 µM for the second.

Going from N#CSc1nc[nH]c1C(N)=O to N#Cc1sc2nc(/C=C3/C=CC=CC3=O)c(O)n2c1N, the TGI rises from 90 µM to over 100 µM.

CN(C)C(=O)NCCN1CCCCCc2ccccc21 and Cc1cccc(/C=N/NC(=S)NCCc2ccccn2)n1 cannot be ordered by TGI: over 100 µM for the first, over 100 µM for the second.

Compared with CC1(C#N)CC(C)(C)C(/C=C2/CC(C)(C)C(/C=C3/OC(=N)CC3(C)C)=N2)=N1 (stereo not given), CC1(C)OCC2OC3(c4nc(C#N)c(N)o4)OC(C)(C)OC3C2O1 (stereo not given) is higher in TGI: 95.9 µM for the first, over 100 µM for the second.

First: C=CCNC1=C2C[C@@H](C)C[C@@H](OC)[C@@H](OC(=O)CCCN)[C@H](C)/C=C(\C)[C@@H](OC(N)=O)[C@H](OC)/C=C\C=C(/C)C(=O)NC(=CC1=O)C2=O
Second: COc1ccc(CCNC2=CC(=O)c3ncccc3C2=O)cc1OC
The TGI of the first is 12-fold higher: 44.2 µM for the first, 3.59 µM for the second.

CC(=O)Oc1ccccc1-c1cc2ccccc2oc1=O and N#Cc1c(-c2ccccc2)[nH]c2ccccc2c1=O cannot be ordered by TGI: over 100 µM for the first, over 100 µM for the second.

First: CCOC(=O)C(N)CSC(=O)NC (stereo not given)
Second: CC(=O)c1csc2c1C(=O)c1scc(C(C)=O)c1C2=O
The TGI of the first is 65-fold higher: 213 µM for the first, 3.28 µM for the second.

First: CCN1c2nc3ccccc3nc2N(CC)c2nc3ccccc3nc21
Second: COc1ccnc2c1C(=O)c1nc3ccccc3c3ccnc-2c13
The TGI of the first is higher: over 100 µM for the first, 0.535 µM for the second.

C[C@H]1[C@H](C)CC[C@]2(C)CC[C@]3(C)C(=C[C@@H](O)[C@@H]4[C@@]5(C)[C@H](O)[C@@H](O)[C@H](O)C(C)(C)[C@@H]5CC[C@]43C)[C@H]12 and CC12CCC(C(=O)OC1=O)C2(C)C (stereo not given) cannot be ordered by TGI: over 100 µM for the first, over 100 µM for the second.

c1cc(-c2ncc(-c3ccc4c(c3)CCCO4)o2)ccn1 and COc1ccc2c(c1)CCc1c-2[nH]c2ccc(OC)cc12 cannot be ordered by TGI: over 100 µM for the first, over 100 µM for the second.

First: O=C(O)c1ccc(NNc2cc(=O)[nH]c(=O)[nH]2)cc1
Second: O=C(NCCCNC(=O)c1ccc2c(O)c(O)ccc2c1)c1ccc2c(O)c(O)ccc2c1
The TGI of the first is higher: over 100 µM for the first, 52.2 µM for the second.

CC1=C(Br)C(Br)=C(C)S1=O and O=C1NC(=O)C(c2c[nH]c3cc(Br)ccc23)=C1c1cn(C(c2ccccc2)(c2ccccc2)c2ccccc2)cn1 are within 1.5-fold of each other in TGI: 30.6 µM for the first, 31.8 µM for the second.

Test system: K-562 leukemia
Assay: DTP human tumour cell line panel, 48 h

CN1CCOC1(C)CO (stereo not given) and CC12CCC(C(=O)OC1=O)C2(C)C (stereo not given) cannot be ordered by TGI: over 100 µM for the first, over 100 µM for the second.

COc1ccc2c3c1O[C@H]1C(O)CCC4(O)[C@@H](C2)NCC[C@]314 (stereo not given in full) and COc1ccc2c(c1C)C(=O)C(O)(CC=C(C)C)O2 (stereo not given) cannot be ordered by TGI: over 100 µM for the first, over 100 µM for the second.

Going from N#CSc1nc[nH]c1C(N)=O to N#Cc1sc2nc(/C=C3/C=CC=CC3=O)c(O)n2c1N, the TGI falls from over 100 µM to 55.9 µM.

CN(C)C(=O)NCCN1CCCCCc2ccccc21 and CCOC(=O)c1csc(NC(=O)C(C)N2CCCCC2)n1 (stereo not given) cannot be ordered by TGI: over 100 µM for the first, over 100 µM for the second.

CCOC(=O)c1nc2c(Cl)c3ncccc3cc2[nH]c1=O and CCOC(=O)C1=C(Nc2cccc(OC)c2)OCC1=O cannot be ordered by TGI: over 100 µM for the first, over 100 µM for the second.

Going from CC1(C#N)CC(C)(C)C(/C=C2/CC(C)(C)C(/C=C3/OC(=N)CC3(C)C)=N2)=N1 (stereo not given) to CC1(C)OCC2OC3(c4nc(C#N)c(N)o4)OC(C)(C)OC3C2O1 (stereo not given), the TGI rises from 78.1 µM to over 100 µM.

First: Cc1cccc(/C=N/NC(=S)NCCc2ccccn2)n1
Second: COc1ccc(CCNC2=CC(=O)c3ncccc3C2=O)cc1OC
The TGI of the first is higher: over 100 µM for the first, 8.28 µM for the second.

C=CCNC1=C2C[C@@H](C)C[C@@H](OC)[C@@H](OC(=O)CCCN)[C@H](C)/C=C(\C)[C@@H](OC(N)=O)[C@H](OC)/C=C\C=C(/C)C(=O)NC(=CC1=O)C2=O and COc1ccc2c(c1)CCc1c-2[nH]c2ccc(OC)cc12 cannot be ordered by TGI: over 100 µM for the first, over 100 µM for the second.

CC(=O)Oc1ccccc1-c1cc2ccccc2oc1=O and N#Cc1c(-c2ccccc2)[nH]c2ccccc2c1=O cannot be ordered by TGI: over 100 µM for the first, over 100 µM for the second.

Going from CCOC(=O)C(N)CSC(=O)NC (stereo not given) to CC(=O)c1csc2c1C(=O)c1scc(C(C)=O)c1C2=O, the TGI falls from 284 µM to 4.35 µM (65-fold).

Going from CCN1c2nc3ccccc3nc2N(CC)c2nc3ccccc3nc21 to COc1ccnc2c1C(=O)c1nc3ccccc3c3ccnc-2c13, the TGI falls from over 100 µM to 0.653 µM.

Going from O=C1c2cc3c(cc2CC12Cc1cc4c(cc1C2=O)CCC4)CCCC3 (stereo not given) to c1cc(-c2ncc(-c3ccc4c(c3)CCCO4)o2)ccn1, the TGI falls from over 100 µM to 7.05 µM.

C[C@H]1[C@H](C)CC[C@]2(C)CC[C@]3(C)C(=C[C@@H](O)[C@@H]4[C@@]5(C)[C@H](O)[C@@H](O)[C@H](O)C(C)(C)[C@@H]5CC[C@]43C)[C@H]12 and O=C(NCCCNC(=O)c1ccc2c(O)c(O)ccc2c1)c1ccc2c(O)c(O)ccc2c1 cannot be ordered by TGI: over 100 µM for the first, over 78.7 µM for the second.

Compared with O=C(O)c1ccc(NNc2cc(=O)[nH]c(=O)[nH]2)cc1, O=C1NC(=O)C(c2c[nH]c3cc(Br)ccc23)=C1c1cn(C(c2ccccc2)(c2ccccc2)c2ccccc2)cn1 is lower in TGI: over 100 µM for the first, 45.9 µM for the second.

With CC1=C(Br)C(Br)=C(C)S1=O the TGI was over 100 µM.

Test system: SK-MEL-5 melanoma
Assay: DTP human tumour cell line panel, 48 h

CN1CCOC1(C)CO (stereo not given) and COc1ccc2c3c1O[C@H]1C(O)CCC4(O)[C@@H](C2)NCC[C@]314 (stereo not given in full) cannot be ordered by TGI: over 100 µM for the first, over 100 µM for the second.

In the case of N#CSc1nc[nH]c1C(N)=O, the TGI is reported as over 100 µM.
